Source: patent US20230122510A1, “CANNABINOID DERIVATIVES” (CANOPY GROWTH CORPORATION, priority 2019, published 2023)

How the values were obtained:
human CB1 receptor = biological target: T1, human CB1 receptor (Homo sapiens, UniProt P21554); assay: CB1 radioligand competitive binding assay ([3H]CP 55,940 displacement); details: for IC50: displacement of 0.8 nM [3H]CP 55,940, membranes of CHO-K1 cells expressing human CB1 receptor; for Selectivity CB1: fold difference between CB1 and CB2 binding, (CB1 over CB2)
T1 construct: host or cells: CHO-K1

human CB2 receptor = biological target: T2, human CB2 receptor (Homo sapiens, UniProt P34972); assay: CB2 radioligand competitive binding assay ([3H]CP 55,940 displacement); details: for IC50: displacement of 0.6 nM [3H]CP55,940, membranes of CHO-K1 cells expressing human CB2 receptor; for Selectivity CB2: fold difference between CB1 and CB2 binding, the receptor with higher binding affinity (CB2 over CB1)
T2 construct: host or cells: CHO-K1
Protocol: Compounds of the present disclosure were tested for CB1 receptor binding affinity and for CB2 receptor binding affinity. As used herein, “binding affinity” is represented by the IC50 value, which was experimentally determined as described herein. The lower the IC50 value the higher the binding affinity. A compound of the present disclosure may be said to have “binding selectivity” if it has a higher binding affinity for one receptor compared to the other.
The membranes were prepared from CHO-K1 (Chinese hamster ovary) cells stably transfected with the human CB2 receptor (Cat. #ES-111-C; Perkin Elmer, Boston, Mass.). The cells were grown adherently and maintained in Ham's F12 medium containing 10% fetal bovine serum (FBS), penicillin, streptomycin and geneticin (G418) at 37° C. in a humid atmosphere of 5% CO2 following the manufacturer's instructions.
For membrane preparation the cells were washed with PBS and scraped off the plates in cold homogenization buffer (25 mM HEPES (pH 7.4), 2 mM EDTA) containing protease inhibitor cocktail (Sigma Cat. #P8340). The cell suspension was homogenized with a Pro-PK-01200D Polytron Homogenizer (Pro Scientific) and then centrifuged for 30 min at 120,000×g. The supernatant was discarded and the pellet was re-suspended in the homogenization buffer and stored at −80° C. until the time of use.
In this experiment, 3H radiolabeled CP 55,940, i.e. [3H]CP 55,940 (Perkin Elmer, Boston, Mass.), was used as a radioligand for the CB2 receptor to determine the binding affinity of compounds for the CB2 receptor (Scheme 6; above).
The competition binding experiments (single dose and dose-response) were performed by incubating 0.6 nM of [3H]CP55,940 (specific activity 101 Ci/mmol, Perkin Elmer) and different concentrations of compounds disclosed herein with membranes prepared as above from CHO-K1 cells expressing human CB2 receptor (1 μg of protein/well), 50 mM Tris-HCl (pH 7.4), 5 mM MgCl2, 1 mM CaCl2, and 2 mg/mL BSA.
For the single dose experiments, the compound stocks (usually 10 mM in DMSO) were diluted to working stocks in the binding buffer to give the final compound concentrations of 10 μM and 1 μM. For the dose-response experiments the test compounds were sequentially diluted to provide the desired concentration range for the […] determination. In each case the compounds were pre-incubated with the membrane for 20 min, before adding the radioligand.
After incubation with the radioligand for 60 min at 37° C., the incubation was terminated by rapid filtration of assay mixture through MultiScreen®HTS^+ 96-well filter plates (Millipore, Cat. #MSFCNXB), pre-soaked for 60 min with 50 mM Tris-HCl (pH 7.4) containing 0.33% polyethylenimine (PEI). The nonspecific binding (NSB) was determined in the presence of 10 μM unlabelled CP55,940. After drying the filter plate at 50° C. for at least 60 min, the filter-bound radioactivity was determined by scintillation spectrometry using the 1450 MicroBeta Plate Counter (Perkin Elmer, Boston, Mass.). From the dose-response experiments, the IC50 values were determined (see Table 1, CB2 IC50).
Where the test compound had about the same affinity for both receptors, this is represented by a value of 1.00 in the column for both receptors.

T2 sequence (P34972 whole entry): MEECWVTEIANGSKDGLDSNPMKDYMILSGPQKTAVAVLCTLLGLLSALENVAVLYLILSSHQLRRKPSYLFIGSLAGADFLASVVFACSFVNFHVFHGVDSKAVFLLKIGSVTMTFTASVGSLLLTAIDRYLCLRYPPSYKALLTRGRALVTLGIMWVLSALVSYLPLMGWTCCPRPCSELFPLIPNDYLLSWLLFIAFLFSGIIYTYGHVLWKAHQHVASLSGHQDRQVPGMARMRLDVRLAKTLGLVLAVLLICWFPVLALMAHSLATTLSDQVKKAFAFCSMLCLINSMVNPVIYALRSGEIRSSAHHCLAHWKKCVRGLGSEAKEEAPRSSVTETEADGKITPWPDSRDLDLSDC
T1 sequence (P21554 whole entry): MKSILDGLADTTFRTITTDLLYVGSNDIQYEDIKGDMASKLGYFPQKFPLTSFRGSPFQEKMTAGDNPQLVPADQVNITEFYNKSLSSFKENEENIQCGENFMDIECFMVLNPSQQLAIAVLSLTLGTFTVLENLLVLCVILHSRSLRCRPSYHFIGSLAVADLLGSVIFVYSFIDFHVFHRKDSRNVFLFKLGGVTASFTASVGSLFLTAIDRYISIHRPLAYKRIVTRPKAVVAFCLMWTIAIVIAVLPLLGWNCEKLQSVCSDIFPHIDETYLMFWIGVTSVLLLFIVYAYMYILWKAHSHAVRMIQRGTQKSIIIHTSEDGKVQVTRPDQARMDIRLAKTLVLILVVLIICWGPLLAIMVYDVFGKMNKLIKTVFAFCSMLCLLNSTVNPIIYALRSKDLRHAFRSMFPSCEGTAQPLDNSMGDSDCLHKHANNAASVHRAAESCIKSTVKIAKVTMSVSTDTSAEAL

Structure (SMILES) | IC50 (human CB1 receptor) [nM] | IC50 (human CB2 receptor) [nM] | Selectivity CB2 (human CB2 receptor) [fold] | Selectivity CB1 (human CB1 receptor) [fold]
CCCCCc1cc(O)c(C/C=C(\C)CCC=C(C)C)c(O)c1-c1cncnc1 [Compound 13, 2-(3,7-dimethylocta-2,6-dien-1-yl)-5-pentyl-4-(pyrimidin-5-yl) benzene-1,3-diol] | 1000 to 4990 | 1000 to 4990 | 1.85 | –
CCCCCc1cc(O)c(C/C=C(\C)CCC=C(C)C)c(O)c1-c1ccncc1 [Compound 14, 2-(3,7-dimethylocta-2,6-dien-1-yl)-5-pentyl-4-(pyridin-4-yl)benzene-1,3-diol] | 1000 to 4990 | 500 to 990 | 2.27 | –
CCCCCc1cc(O)c(C/C=C(\C)CCC=C(C)C)c(O)c1-c1ccco1 [Compound 15, 2-(3,7-dimethylocta-2,6-dien-1-yl)-4-(furan-2-yl)-5-pentylbenzene-1,3-diol] | 1000 to 4990 | 1000 to 4990 | 2.11 | –
CCCCCc1cc(O)c(C/C=C(\C)CCC=C(C)C)c(O)c1-c1ccsc1 [Compound 17, 2-(3,7-dimethylocta-2,6-dien-1-yl)-5-pentyl-4-(thiophen-3-yl)benzene-1,3-diol] | 1000 to 4990 | 500 to 990 | 2.10 | –
CCCCCc1cc(O)c(C/C=C(\C)CCC=C(C)C)c(O)c1-c1cncs1 [Compound 18, 2-(3,7-dimethylocta-2,6-dien-1-yl)-5-pentyl-4-(thiazol-5-yl) benzene-1,3-diol] | 1000 to 4990 | 500 to 990 | 2.32 | –
CCCCCc1cc(O)c(C/C=C(\C)CCC=C(C)C)c(O)c1-c1cc2ccccc2o1 [Compound 32, 4-(benzofuran-2-yl)-2-(3,7-dimethylocta-2,6-dien-1-yl)-5-pentylbenzene-1,3-diol] | 500 to 990 | 1000 to 4990 | – | 1.16
CCCCCc1cc(O)c(C/C=C(\C)CCC=C(C)C)c(O)c1-c1cc2ccccc2s1 [Compound 33, 4-(benzo[b]thiophen-2-yl)-2-(3,7-dimethylocta-2,6-dien-1-yl)-5-pentylbenzene-1,3-diol] | 1000 to 4990 | 500 to 990 | 1.45 | –
CCCCCc1cc(O)c(C/C=C(\C)CCC=C(C)C)c(O)c1-c1cc(C)cs1 [Compound 34, 2-(3,7-dimethylocta-2,6-dien-1-yl)-4-(4-methylthiophen-2-yl)-5-pentylbenzene-1,3-diol] | 500 to 990 | < 500 | 2.15 | –
CCCCCc1cc(O)c(C/C=C(\C)CCC=C(C)C)c(O)c1-c1ccnn1C [Compound 35, (E)-2-(3,7-dimethylocta-2,6-dien-1-yl)-4-(1-methyl-1H-pyrazol-5-yl)-5-pentylbenzene-1,3-diol] | 1000 to 4990 | 1000 to 4990 | 1.21 | –
CCCCCc1cc(O)c(C/C=C(\C)CCC=C(C)C)c(O)c1-c1cccc(N2CCOCC2)c1 [Compound 36, 3-(3,7-dimethylocta-2,6-dien-1-yl)-3′-morpholino-6-pentyl-[1,1′-biphenyl]-2,4-diol] | < 500 | < 500 | 8.93 | –
CCCCCc1cc(O)c(C/C=C(\C)CCC=C(C)C)c(O)c1-c1c(C)noc1C [Compound 37, 4-(3,5-dimethylisoxazol-4-yl)-2-(3,7-dimethylocta-2,6-dien-1-yl)-5-pentylbenzene-1,3-diol] | > 5000 | 1000 to 4990 | 7.14 | –
CCCCCc1cc(O)c(C/C=C(\C)CCC=C(C)C)c(O)c1-c1cn[nH]c1 [Compound 38, 2-(3,7-dimethylocta-2,6-dien-1-yl)-5-pentyl-4-(1H-pyrazol-4-yl) benzene-1,3-diol] | 500 to 990 | 500 to 990 | 1.21 | –
CCCCCc1cc(O)c(C/C=C(\C)CCC=C(C)C)c(O)c1-c1ccnc(C)c1 [Compound 39, 2-(3,7-dimethylocta-2,6-dien-1-yl)-4-(2-methylpyridin-4-yl)-5-pentylbenzene-1,3-diol] | 1000 to 4990 | 500 to 990 | 2.18 | –
CCCCCc1cc(O)c(C/C=C(\C)CCC=C(C)C)c(O)c1-c1ccc2nccnc2c1 [Compound 40, 2-(3,7-dimethylocta-2,6-dien-1-yl)-5-pentyl-4-(quinoxalin-6-yl)benzene-1,3-diol] | 500 to 990 | 1000 to 4990 | – | 1.65
CCCCCc1cc(O)c(C/C=C(\C)CCC=C(C)C)c(O)c1-c1ccc2[nH]ncc2c1 [Compound 41, 2-(3,7-dimethylocta-2,6-dien-1-yl)-4-(1H-indazol-5-yl)-5-pentylbenzene-1,3-diol] | < 500 | 500 to 990 | – | 79.18
CCCCCc1cc(O)c(C/C=C(\C)CCC=C(C)C)c(O)c1-c1cnc2ccccc2c1 [Compound 42, 2-(3,7-dimethylocta-2,6-dien-1-yl)-5-pentyl-4-(quinolin-3-yl) benzene-1,3-diol] | 500 to 990 | 1000 to 4990 | – | 2.69
CCCc1cc(O)c(C/C=C(\C)CCC=C(C)C)c(O)c1-c1ccsc1 [Compound 43, 2-(3,7-dimethylocta-2,6-dien-1-yl)-5-propyl-4-(thiophen-3-yl) benzene-1,3-diol] | 1000 to 4990 | 500 to 990 | 2.26 | –
CCCc1cc(O)c(C/C=C(\C)CCC=C(C)C)c(O)c1-c1cc2ccccc2o1 [Compound 44, 4-(benzofuran-2-yl)-2-(3,7-dimethylocta-2,6-dien-1-yl)-5-propylbenzene-1,3-diol] | 500 to 990 | 1000 to 4990 | – | 1.67
